Consider two compounds from ChEMBL document CHEMBL5316308, “BET-HDAC Dual Inhibitors for Combinational Treatment of Breast Cancer and Concurrent Candidiasis” (J Med Chem, 2023).

≈ marks a conversion by molar mass, not a printed value. Calls of active or inactive are those of the source. No cut-off for these calls is given here.

The subject of series [1] is MDA-MB-231. In words: Upregulation of acetyl-H3 level in human MDA-MB-231 cells incubated for 24 hrs by Western blot analysis. The format is functional, cell-based. Particulars: dose 0.2-5 µM. (In general: A western blot detects proteins with antibodies after separation by electrophoresis.)
The target of series [2] is T1, Bromodomain-containing protein 4 (Homo sapiens, UniProt O60885). In words: Inhibition of recombinant BRD4 (unknown origin) incubated for 120 mins by TR-FRET assay. (TR-FRET usually uses a lanthanide donor and a delayed reading to cut background.)
The target of series [3] is T1, Bromodomain-containing protein 4. The series can be described thus: Inhibition of recombinant BRD4 (unknown origin) incubated for 120 mins by TR-FRET assay relative to control. Set-up: concentration or dose not given beside the values.
The subject of series [4] is Cryptococcus neoformans. The series can be described thus: Antifungal activity against Cryptococcus neoformans H99 assessed as fungal growth inhibition measured after 48 hrs by CLSI based micro-dilution broth method. The format is functional. On the technique in general: In broth dilution the organism is exposed to a series of concentrations in liquid medium.
In series [5] the target is Histone deacetylase 2 (Homo sapiens, UniProt Q92769). The series can be described thus: Inhibition of C-terminal GST-tagged full-length recombinant human HDAC2 expressed in baculovirus infected Sf9 insect cells using Ac-Leu-Gly-Lys(Ac)-AMC as substrate incubated for 30 mins by fluorescence based assay. In kind it is cell-based.
For series [6], the target named is T2, Histone deacetylase 8 (Homo sapiens, UniProt Q9BY41).
T2 sequence (Q9BY41 whole entry): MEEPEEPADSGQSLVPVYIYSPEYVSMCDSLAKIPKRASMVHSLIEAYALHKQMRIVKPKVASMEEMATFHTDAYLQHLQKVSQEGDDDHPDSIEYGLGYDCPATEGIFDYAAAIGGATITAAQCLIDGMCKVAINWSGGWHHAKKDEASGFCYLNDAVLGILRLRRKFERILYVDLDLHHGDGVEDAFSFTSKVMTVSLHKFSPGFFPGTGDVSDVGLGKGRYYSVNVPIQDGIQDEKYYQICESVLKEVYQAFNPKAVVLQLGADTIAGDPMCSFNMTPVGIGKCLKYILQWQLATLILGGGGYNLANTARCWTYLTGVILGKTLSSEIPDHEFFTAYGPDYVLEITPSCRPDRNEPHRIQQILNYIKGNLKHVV
In words: Inhibition of C-terminal His-tagged full-length recombinant human HDAC8 expressed in baculovirus infected Sf9 insect cells using Ac-Leu-Gly-Lys(Tfa)-AMC as substrate incubated for 30 mins by fluorescence based assay.

Series [7] has as its system MDA-MB-231. In words: Induction of apoptosis in human MDA-MB-231 cells assessed as late apoptotic cells at 5 uM incubated for 48 hrs by Annexin V-FITC/PI staining based flow cytometry relative to control. In kind it is functional.
Series [8] concerns Candida albicans. In words: Antifungal activity FLC-resistant Candida albicans 0304103 assessed as hyphal formation at 32 ug/ml incubated for 3 hrs by inverse fluorescent microscopy. In kind it is functional, organism-based. The settings on record: dose 32.0 µg/ml.
The nature of series [9]: Metabolic stability in ICR mouse liver microsome assessed as half life. The format is ADME. The settings on record: liver microsomes.

Histone deacetylase 2, sequence (Q92769 whole entry): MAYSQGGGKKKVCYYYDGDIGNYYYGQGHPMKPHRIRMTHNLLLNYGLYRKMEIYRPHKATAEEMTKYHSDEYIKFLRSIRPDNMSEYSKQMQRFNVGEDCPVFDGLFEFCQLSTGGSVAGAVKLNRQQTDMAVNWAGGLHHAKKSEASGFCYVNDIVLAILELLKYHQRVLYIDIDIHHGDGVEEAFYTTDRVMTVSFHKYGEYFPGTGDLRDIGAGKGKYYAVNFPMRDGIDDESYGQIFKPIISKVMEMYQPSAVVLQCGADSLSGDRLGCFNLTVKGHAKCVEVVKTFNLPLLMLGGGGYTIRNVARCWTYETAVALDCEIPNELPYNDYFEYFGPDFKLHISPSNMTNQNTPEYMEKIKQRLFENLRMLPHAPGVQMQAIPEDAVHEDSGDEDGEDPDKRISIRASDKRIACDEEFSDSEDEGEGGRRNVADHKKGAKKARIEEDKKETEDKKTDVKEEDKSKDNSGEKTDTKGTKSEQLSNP

The IC50 is the concentration at which inhibition is half-maximal. Usually inhibition stands for how much of the control response was suppressed. One may read the MIC80 as the lowest concentration that inhibits either 80% of growth or 80% of the strains tested, depending on the study. Broadly, the half-life is how long it takes for the measured level to halve. Regarding `COc1cc2c(cc1-c1c(C)noc1C)[nH]c1nc(C)nc(NCCCCCCC(=O)NO)c12`, the Activity result is “Dose-Dependent Effect” in [1] and 46.61% in series [7]. For the same compound, the 50% inhibitory concentration (IC50) in series [2] worked out at 63 nM; in [5] it was 85 nM; in series [6], 782 nM. Further, the inhibition in series [3] was determined as 91.7%. In addition, in [4], the MIC80 stood at 8 µg/mL (≈ 17.1 µM). The result in [8] was Active. For the same compound, the half-life in series [9] stood at 19.3 min.
As for `COc1cc2c(cc1-c1c(C)noc1C)[nH]c1ncnc(NCCCCCCC(=O)NO)c12`, the Activity result in [1] was “Dose-Dependent Effect”; in [7], 58.39%. Besides, the IC50 was 35 nM in [2], 152 nM in series [5] and 784 nM in [6]. In [3], the inhibition is 93.7%. For the same compound, in [4], the MIC80 turned out to be 8 µg/mL (≈ 17.7 µM). In addition, the outcome in series [8] was Active. Also, the half-life in series [9] amounted to 53.3 min.
